These results are taken from patent publication US20060110790A1, “Expression system for large functional proteins” (priority 2002, published 2006).

Each structure is given as a SMILES string.

Holding throughout (assay type): binding
Assay [1] has as its target T1, co-expressed N and C halves of ABCR (Homo sapiens, UniProt P78363).
T1 construct: The cDNAs coding for the N-half (amino acids 1-1325) and C-half (amino acids 1326-2273) of ABCR; made in house; host or cells: COS-1 cells, co-transfected
T1 sequence (P78363 1-1325): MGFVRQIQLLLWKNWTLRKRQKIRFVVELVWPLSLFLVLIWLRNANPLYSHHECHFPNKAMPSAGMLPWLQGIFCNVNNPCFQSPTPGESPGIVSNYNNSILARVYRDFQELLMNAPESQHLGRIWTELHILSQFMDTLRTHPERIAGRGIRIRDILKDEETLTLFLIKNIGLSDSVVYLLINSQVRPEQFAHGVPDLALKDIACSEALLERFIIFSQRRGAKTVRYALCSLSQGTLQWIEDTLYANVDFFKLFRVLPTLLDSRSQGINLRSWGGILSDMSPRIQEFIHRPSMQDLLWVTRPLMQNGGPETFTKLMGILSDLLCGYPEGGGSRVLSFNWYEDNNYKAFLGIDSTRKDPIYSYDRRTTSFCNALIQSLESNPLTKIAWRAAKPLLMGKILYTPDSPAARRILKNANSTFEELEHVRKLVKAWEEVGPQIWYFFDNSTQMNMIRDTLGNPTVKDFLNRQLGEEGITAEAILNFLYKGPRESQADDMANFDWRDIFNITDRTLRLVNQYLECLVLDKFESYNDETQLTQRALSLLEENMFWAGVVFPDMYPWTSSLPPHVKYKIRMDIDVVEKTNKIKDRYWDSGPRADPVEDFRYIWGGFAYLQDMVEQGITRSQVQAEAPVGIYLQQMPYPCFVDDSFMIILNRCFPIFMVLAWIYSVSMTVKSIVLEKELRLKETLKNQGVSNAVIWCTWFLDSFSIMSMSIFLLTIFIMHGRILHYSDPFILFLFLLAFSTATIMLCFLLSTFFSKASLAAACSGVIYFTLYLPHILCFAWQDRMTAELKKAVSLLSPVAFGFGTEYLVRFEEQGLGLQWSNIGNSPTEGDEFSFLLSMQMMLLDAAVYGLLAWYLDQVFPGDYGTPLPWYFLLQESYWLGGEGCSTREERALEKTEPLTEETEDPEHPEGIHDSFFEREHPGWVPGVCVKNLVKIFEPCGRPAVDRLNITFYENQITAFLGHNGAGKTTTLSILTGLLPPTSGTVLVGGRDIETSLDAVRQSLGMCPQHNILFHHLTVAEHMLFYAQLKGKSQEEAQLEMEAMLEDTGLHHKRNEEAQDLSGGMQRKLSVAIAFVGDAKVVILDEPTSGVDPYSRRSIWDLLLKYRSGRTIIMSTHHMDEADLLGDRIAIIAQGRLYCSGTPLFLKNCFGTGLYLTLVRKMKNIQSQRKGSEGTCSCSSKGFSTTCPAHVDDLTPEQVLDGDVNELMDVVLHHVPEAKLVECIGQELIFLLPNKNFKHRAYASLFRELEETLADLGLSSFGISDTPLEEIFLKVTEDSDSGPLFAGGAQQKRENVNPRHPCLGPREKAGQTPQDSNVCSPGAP
T1 sequence (P78363 1326-2273): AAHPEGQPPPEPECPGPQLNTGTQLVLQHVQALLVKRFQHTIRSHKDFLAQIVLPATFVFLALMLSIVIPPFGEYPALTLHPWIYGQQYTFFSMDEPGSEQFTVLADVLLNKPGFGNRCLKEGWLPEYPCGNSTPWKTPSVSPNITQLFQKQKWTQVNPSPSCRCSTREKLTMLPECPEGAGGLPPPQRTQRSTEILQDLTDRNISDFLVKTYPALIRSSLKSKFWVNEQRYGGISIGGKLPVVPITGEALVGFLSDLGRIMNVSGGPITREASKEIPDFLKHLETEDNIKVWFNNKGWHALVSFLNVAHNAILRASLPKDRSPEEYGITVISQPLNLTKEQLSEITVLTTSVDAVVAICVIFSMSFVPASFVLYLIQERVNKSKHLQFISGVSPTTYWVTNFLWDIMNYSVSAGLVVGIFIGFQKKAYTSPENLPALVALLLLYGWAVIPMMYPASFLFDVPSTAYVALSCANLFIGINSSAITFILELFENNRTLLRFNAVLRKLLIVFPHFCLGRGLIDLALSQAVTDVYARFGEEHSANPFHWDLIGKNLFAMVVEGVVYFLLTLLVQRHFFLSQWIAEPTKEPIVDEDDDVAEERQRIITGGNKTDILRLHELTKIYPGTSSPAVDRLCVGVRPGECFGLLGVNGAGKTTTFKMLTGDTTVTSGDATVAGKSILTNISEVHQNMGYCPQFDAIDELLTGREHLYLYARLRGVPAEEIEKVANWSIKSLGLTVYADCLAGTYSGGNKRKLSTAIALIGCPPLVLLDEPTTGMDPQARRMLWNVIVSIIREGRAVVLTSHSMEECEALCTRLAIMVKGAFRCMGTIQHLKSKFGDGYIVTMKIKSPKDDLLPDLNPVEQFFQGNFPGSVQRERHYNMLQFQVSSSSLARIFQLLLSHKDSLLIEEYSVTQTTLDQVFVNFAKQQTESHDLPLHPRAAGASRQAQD
In words: 8-azido-ATP photoaffinity labeling of membranes from transfected cells. As to conditions: 1 mM ATP added prior to photoaffinity labeling; 1.5 μM 8-azido-[α-32P]ATP; C-half labeled; FIG. 5A lane 4. The procedure:
(§1) FIG. 5. Azido-ATP photoaffinity labeling of the N and C halves of ABCR. A. Membranes from transfected cells expressing either full-length ABCR (lanes 1 & 2) or co-expressing the N and C halves (lanes 3 & 4) were photoaffinity labeled with 1.5 μM 8-azido-[α-^32P]ATP in the absence or presence of 1 mM ATP. The expressed protein was isolated on a Rim3F4-Sepharose matrix prior to analysis by SDS-PAGE and phosphorimage analysis. Left panel: Coomassie blue stained gel. Right panel: Azido-ATP labeling. B. Membranes from transfected cells expressing full-length ABCR, the N-half, the C-half, or both halves (NC halves) were labeled with 8-azido-[α-^32P] and isolated as above. Similar amounts of protein were loaded in each lane of the gel as judged by staining with Coomassie brilliant blue (not shown). C. Rod outer segment membranes were incubated with (+) or without (−) trypsin and subsequently labeled with azido-[α-^32P]ATP. ABCR and the associated N and C complex were purified on a Rim3F4-Sepharose matrix. Left panel: Azido-ATP labeling of the full-length ABCR (220 kDa) and the C-half (114 kDa); N-half was not labeled. Right panel: Western blots labeled for the full-length ABCR and C-half with the Rim3F4 antibody and the N-half with the Rim5B4 antibody. […]

In another assay the target is full-length ABCR (Homo sapiens, UniProt P78363). Described as above. Details: Membranes from transfected cells expressing either full-length ABCR (lanes 1 & 2); expressed in transfected cells; host or cells: transfected cells (COS-1 or EBNA293). The following applies: 1 mM ATP added prior to photoaffinity labeling; 1.5 μM 8-azido-[α-32P]ATP; FIG. 5A lane 2. The procedure:
as §1

In a further assay the target is T2, ABCR (Homo sapiens, UniProt P78363).
T2 construct: Membranes from transfected cells expressing either full-length ABCR (lanes 1 & 2) or co-expressing the N and C halves; expressed in transfected cells; host or cells: transfected cells (COS-1 or EBNA293)
In words: 8-azido-ATP/ADP nucleotide trapping in membranes from transfected cells. The following applies: 800 μM orthovanadate, 5 μM 8-azido-[α-32P]ATP, 37° C. The protocol:
FIG. 7. Nucleotide trapping by ABCR and co-expressed N and C halves. A. Effect of orthovanadate on nucleotide trapping. Membranes from transfected cells were incubated with 5 μM 8-azido-[α-^32P]ATP at 37° C., washed, and tightly bound nucleotides were UV crosslinked. Lane 1, full-length ABCR; lane 2, full-length ABCR incubated with 800 μM orthovanadate; lane 3, co-expressed N and C halves; lane 4, co-expressed N- and C-halves incubated with 800 μM orthovanadate. B. Effect of temperature and retinal on nucleotide trapping. Lane 1, full-length ABCR labeled at 0° C.; lane 2, full-length ABCR labeled at 37° C.; lane 3, full-length ABCR labeled at 37° C. in the presence of 50 μM all-trans retinal; lane 4, co-expressed N and C halves labeled at 0° C.; lane 5, co-expressed N and C halves labeled at 37° C.; lane 6, co-expressed N and C halves labeled at 37° C. in the presence of 50 μM all-trans retinal.
8-Azido-ATP Trapping—Membranes were incubated with 5 μM 8-azido-[α-^32P]ATP in 50 μl of labeling buffer with or without 800 μM sodium orthovanadate for 10 min at 37° C. All-trans retinal and 50 μM DTT were added where indicated. Binding was stopped by the addition of ice-cold 20 mM Tris-HCl, pH 7.4, the membranes were collected by centrifugation and washed one more time. Samples exposed to orthovanadate were washed in the presence of 800 μM orthovanadate. […]

Chain of full-length ABCR (P78363 whole entry): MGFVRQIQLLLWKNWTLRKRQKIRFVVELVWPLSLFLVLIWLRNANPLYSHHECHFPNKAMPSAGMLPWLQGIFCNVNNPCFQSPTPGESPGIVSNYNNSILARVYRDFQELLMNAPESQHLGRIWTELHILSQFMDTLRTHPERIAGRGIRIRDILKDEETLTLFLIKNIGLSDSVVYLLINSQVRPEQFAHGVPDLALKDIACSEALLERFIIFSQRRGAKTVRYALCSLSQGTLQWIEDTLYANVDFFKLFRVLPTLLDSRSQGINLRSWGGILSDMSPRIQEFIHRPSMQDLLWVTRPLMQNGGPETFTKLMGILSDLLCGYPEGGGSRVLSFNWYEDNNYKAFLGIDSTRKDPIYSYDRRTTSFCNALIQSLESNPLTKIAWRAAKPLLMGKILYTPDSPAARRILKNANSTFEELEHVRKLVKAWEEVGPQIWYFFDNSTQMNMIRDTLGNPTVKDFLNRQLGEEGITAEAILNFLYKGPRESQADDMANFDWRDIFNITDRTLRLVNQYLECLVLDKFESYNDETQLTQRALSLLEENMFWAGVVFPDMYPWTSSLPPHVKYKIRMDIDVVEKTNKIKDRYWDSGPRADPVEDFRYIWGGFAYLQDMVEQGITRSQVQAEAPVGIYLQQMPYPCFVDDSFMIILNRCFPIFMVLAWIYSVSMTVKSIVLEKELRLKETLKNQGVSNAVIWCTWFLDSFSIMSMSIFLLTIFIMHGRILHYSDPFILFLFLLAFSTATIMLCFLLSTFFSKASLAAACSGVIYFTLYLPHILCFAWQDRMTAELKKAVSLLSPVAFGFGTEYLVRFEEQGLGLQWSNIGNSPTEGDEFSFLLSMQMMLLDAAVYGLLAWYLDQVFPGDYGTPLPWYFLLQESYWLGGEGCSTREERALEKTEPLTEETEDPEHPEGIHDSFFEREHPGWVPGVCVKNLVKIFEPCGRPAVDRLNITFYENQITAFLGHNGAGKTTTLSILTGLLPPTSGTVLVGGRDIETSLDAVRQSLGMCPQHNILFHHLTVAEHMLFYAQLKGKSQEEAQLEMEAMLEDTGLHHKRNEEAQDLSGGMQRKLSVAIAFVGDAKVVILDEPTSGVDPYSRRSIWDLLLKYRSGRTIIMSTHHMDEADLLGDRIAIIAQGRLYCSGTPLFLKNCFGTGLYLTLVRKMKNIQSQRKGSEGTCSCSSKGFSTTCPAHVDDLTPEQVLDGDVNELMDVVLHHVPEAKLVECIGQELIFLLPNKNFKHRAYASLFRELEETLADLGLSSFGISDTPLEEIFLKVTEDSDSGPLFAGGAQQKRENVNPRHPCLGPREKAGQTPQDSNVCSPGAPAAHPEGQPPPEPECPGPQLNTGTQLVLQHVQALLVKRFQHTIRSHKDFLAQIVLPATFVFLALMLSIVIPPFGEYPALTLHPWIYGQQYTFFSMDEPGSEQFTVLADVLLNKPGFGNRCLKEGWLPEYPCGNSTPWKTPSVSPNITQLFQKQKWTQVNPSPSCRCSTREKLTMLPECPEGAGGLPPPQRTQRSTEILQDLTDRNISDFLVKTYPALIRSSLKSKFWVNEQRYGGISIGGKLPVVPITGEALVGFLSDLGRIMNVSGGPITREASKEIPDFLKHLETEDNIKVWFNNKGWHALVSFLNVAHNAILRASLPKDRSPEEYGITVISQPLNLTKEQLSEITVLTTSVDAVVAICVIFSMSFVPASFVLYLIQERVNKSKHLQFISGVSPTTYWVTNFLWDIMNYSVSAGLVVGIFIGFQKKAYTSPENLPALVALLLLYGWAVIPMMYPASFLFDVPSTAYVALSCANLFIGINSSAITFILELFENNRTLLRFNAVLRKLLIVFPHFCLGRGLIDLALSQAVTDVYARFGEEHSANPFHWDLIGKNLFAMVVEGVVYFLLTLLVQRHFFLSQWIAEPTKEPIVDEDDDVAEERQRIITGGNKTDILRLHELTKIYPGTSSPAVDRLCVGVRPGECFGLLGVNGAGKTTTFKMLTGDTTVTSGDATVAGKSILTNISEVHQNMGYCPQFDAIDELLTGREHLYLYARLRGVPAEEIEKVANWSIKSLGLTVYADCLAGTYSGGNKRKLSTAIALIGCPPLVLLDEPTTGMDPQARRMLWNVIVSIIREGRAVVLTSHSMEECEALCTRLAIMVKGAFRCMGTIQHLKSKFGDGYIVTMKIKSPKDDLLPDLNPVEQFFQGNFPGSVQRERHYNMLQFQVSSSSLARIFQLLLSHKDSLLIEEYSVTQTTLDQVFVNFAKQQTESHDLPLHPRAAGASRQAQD
T2 sequence (P78363 whole entry): as above

As for `Nc1ncnc2c1ncn2[C@@H]1O[C@H](COP(=O)(O)OP(=O)(O)OP(=O)(O)O)[C@@H](O)[C@H]1O` [ATP], the “effect on 8-azido-ATP labeling” value (in assay [1]; on full-length ABCR) was “essentially abolished” each time.

As for `[Na+].[Na+].[Na+].[O]=[V]([O-])([O-])[O-]` [sodium orthovanadate], at ABCR, the “effect on 8-azido ATP/ADP trapping” value was “not dependent”.
